Experimental data published in publication PMC3172300, “Modulation of Catalytic Activity in Multi-Domain Protein Tyrosine Phosphatases” (PLoS ONE, 2011).
Where “and” joins values, the source holds several entries; their conditions need not be identical. Equal values may be shown once. Square brackets hold non-standard residues; d marks the D form. Peptide text beside a SMILES is read from it. pY = N[C@@H](Cc1ccc(OP(=O)(O)O)cc1)C(=O)O

How the values were obtained:
DLAR D1 = biological target: T1, DLAR D1 (Drosophila melanogaster, UniProt P16621); assay: Surface Plasmon Resonance peptide binding, DLAR D1; conditions: column first binding site, single-site model
T1 construct: DLAR 1448-1746; His tag (pET-15b or pET-22b); made in house; host or cells: E. coli BL21(DE3)
T1 sequence (P16621 1448-1746): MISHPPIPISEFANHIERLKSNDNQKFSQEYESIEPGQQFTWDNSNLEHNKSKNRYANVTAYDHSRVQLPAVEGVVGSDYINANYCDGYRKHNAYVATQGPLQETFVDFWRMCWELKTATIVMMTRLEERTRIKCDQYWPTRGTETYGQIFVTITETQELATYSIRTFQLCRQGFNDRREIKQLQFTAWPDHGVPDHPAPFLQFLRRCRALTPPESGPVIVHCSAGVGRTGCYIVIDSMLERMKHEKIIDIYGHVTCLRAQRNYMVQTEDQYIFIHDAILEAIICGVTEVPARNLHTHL
Experimental: The binding of phosphotyrosine peptides to the PTP domains was studied by Surface Plasmon Resonance on a Biacore-2000 instrument (BIAcore, AB). All experiments were conducted at 25°C. DLAR PTP domains were immobilized onto carboxylated dextran CM5 chips (BIAcore AB) using the standard amine coupling procedure as recommended by the manufacturer. Binding and kinetic assays were performed in 10 mM HEPES, pH 8.0, 150 mM NaCl, 10 mM DTT and 3 mM EDTA at a flow rate of 5 µL/min. The peptides were used at concentrations ranging from 50–700 µM. Dissociation was initiated by replacing the analyte with buffer. The association and dissociation curves were monitored for 600 sec. Sensograms were analyzed with BIA-evaluation software version 2 (BIAcore AB). Sensograms for DLAR D1D2, DLAR D1HSSD2 and DLAR D1D2HSS were fitted to two-site binding equations. DLAR D1 and DLAR D2 sensograms were fitted using a single-site binding model.

DLAR D1D2 = biological target: T2, DLAR D1D2 (Drosophila melanogaster, UniProt P16621); assay: Phosphatase assay using pNPP, DLAR D1D2; format: biochemical; conditions: 2 mM DTT
T2 construct: DLAR 1448-2029; His tag (pET-15b or pET-22b); made in house; host or cells: E. coli BL21(DE3)
T2 sequence (P16621 1448-2029): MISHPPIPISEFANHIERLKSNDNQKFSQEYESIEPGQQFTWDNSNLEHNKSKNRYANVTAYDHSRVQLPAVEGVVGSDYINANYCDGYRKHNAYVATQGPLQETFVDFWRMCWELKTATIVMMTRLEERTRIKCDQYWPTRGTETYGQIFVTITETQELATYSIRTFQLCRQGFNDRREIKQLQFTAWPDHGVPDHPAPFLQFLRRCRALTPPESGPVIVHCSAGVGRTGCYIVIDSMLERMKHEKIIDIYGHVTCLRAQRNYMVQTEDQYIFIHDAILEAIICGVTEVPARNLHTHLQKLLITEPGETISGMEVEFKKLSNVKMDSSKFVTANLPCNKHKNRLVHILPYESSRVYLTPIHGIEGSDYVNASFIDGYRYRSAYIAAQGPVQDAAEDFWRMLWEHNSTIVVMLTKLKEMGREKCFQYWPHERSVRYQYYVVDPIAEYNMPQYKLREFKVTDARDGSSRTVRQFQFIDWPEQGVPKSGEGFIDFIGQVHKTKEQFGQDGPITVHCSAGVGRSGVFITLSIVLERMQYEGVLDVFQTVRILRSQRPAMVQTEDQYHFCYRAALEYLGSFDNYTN
Experimental: (§1) Phosphatase activity of the recombinant PTP domains was determined by using para-Nitrophenylphosphate (pNPP), a small molecule generic substrate, as well as phosphotyrosine containing peptides. The pNPP assay was performed as reported previously, with a modification in the buffer composition (25 mM Citrate, Glycine and HEPES (CGH), pH 6.5, 100 mM NaCl and 2 mM DTT). Phosphatase activity with the phosphotyrosine peptides was ascertained by the malachite green reaction as described for PTPs previously. Briefly, the reaction mixture comprised of 0.01 µM protein incubated with increasing concentrations of different peptides in 25 mM citrate buffer pH 6.0, 100 mM NaCl and 2 mM DTT for 15 min at 25°C. The reaction was stopped by the addition of the Biomol Green reagent (Enzo Life Sciences) and the colour developed after 20 min was quantified at 650 nm. For all the assays, kinetic constants for the steady state catalysis were obtained by fitting the reaction curves to the Michaelis-Menten equation using the nonlinear regression module of Sigma plot software (Systat Software, Inc.).
The tandem PTP domains of PTP99A (PTP99A D1D2) and DLAR (DLAR D1D2) , the individual PTP domains (D1 and D2) as well as the active site mutants were expressed in E. coli and were purified using the protocols described earlier (Figure 1a, Figure S1a, b & c). The biochemical characterization and catalytic activity measurements were performed using pNPP as a substrate. […] Thus the D2 domain appears to have a regulatory role in both RPTPs- decreasing the catalytic activity in the case of DLAR while increasing the catalytic activity in the case of PTP99A (Figure 1b).

PTP99A D2 = biological target: T3, PTP99A D2 (Drosophila melanogaster, UniProt P35832); assay: Phosphatase assay using pNPP, PTP99A D2; format: biochemical; conditions: CGH buffer pH 6.5
T3 sequence (P35832 740-1050): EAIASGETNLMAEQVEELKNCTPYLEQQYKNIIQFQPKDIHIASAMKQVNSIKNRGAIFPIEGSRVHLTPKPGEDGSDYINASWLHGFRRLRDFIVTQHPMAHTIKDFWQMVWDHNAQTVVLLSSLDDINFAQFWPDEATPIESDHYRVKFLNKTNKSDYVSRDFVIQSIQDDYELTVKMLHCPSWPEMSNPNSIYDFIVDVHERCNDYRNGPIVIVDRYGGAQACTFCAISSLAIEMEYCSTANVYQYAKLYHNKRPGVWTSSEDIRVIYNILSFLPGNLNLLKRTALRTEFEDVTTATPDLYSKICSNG
Experimental: as §1

[1] = system: PTP99A D1 active site cysteine to serine mutant; assay: Phosphatase assay using pNPP, PTP99A D1 active site Cys to Ser mutant; format: biochemical, Drosophila melanogaster; conditions: active site cysteine to serine in D1
Description: Cosmids containing the genes encoding RPTPs DLAR and PTP99A were a kind gift from Prof. Kai Zinn (Caltech). The PTP domains of PTP99A and DLAR were PCR amplified and ligated between the NheI and XhoI restriction sites of the bacterial expression vectors pET-15b and pET-22b. The active site mutants (with the nucleophilic cysteines in the PTP domains of DLAR and PTP99A mutated to serines) were obtained by using a single primer approach. An XbaI site was incorporated in the primers to aid screening of mutants. All clones were confirmed by sequencing (Macrogen Inc.). The details of the expression constructs are compiled in Table S1 and Figure 1a.
Phosphatase activity of the recombinant PTP domains was determined by using para-Nitrophenylphosphate (pNPP), a small molecule generic substrate, as well as phosphotyrosine containing peptides. The pNPP assay was performed as reported previously, with a modification in the buffer composition (25 mM Citrate, Glycine and HEPES (CGH), pH 6.5, 100 mM NaCl and 2 mM DTT). Phosphatase activity with the phosphotyrosine peptides was ascertained by the malachite green reaction as described for PTPs previously. […] The reaction was stopped by the addition of the Biomol Green reagent (Enzo Life Sciences) and the colour developed after 20 min was quantified at 650 nm. […]

SMILES | kon (DLAR D1; SPR Biacore-2000, 25°C, 10 mM HEPES pH 8.0, 150 mM NaCl, 10 mM DTT, 3 mM EDTA, peptides 50–700 µM, read-out: ka) | Kd (DLAR D1; SPR, 25°C, pH 8.0) | Vmax (DLAR D1D2; 25 mM Citrate, Glycine and HEPES (CGH), pH 6.5, 100 mM NaCl, Michaelis-Menten fit) | Kcat (DLAR D1D2; CGH buffer pH 6.5, 100 mM NaCl) | Kcat/Km (DLAR D1D2; CGH buffer pH 6.5, 100 mM NaCl) | PTPase activity (PTP99A D2) | PTPase activity [1]
CC(C)C[C@H](NC(=O)[C@H](C)NC(=O)CNC(=O)[C@H](Cc1ccc(OP(=O)(O)O)cc1)NC(=O)[C@H](CC(=O)O)NC(=O)[C@@H]1CCCN1C(=O)[C@H](CCC(=O)O)NC(=O)[C@H](C)NC(=O)[C@@H](N)[C@@H](C)O)C(=O)N[C@@H](Cc1ccc(O)cc1)C(=O)N[C@@H](CCC(=O)O)C(=O)O [Cuticle peptide] (H-TAEPD[pY]GALYE-OH) | 18.6 ± 1.46 M⁻¹ s⁻¹ | 94.6 ± 0.33 µM |  |  |  |  | 
O=[N+]([O-])c1ccc(OP(=O)(O)O)cc1 [pNPP, para-Nitrophenylphosphate] |  |  | 6.19 µmol/min/mg and 6.19 ± 0.14 µmol/min/mg | 6.88 ± 0.16 s⁻¹ | 3.23 ± 0.09 x 10^3 sec^-1M^-1 | no detectable activity | inactive enzyme
